Earlier results on one compound are cited in US9980959B2, “Method and composition for treating rhinitis” (Biolipox AB, priority 2004, dated 2018).

The conditions of series [1]: nasal spray.
The conditions of series [2]: mist administered to the lung with a nebulizer.

In the case of `O=C(O)COCCN1CCN(C(c2ccccc2)c2ccc(Cl)cc2)CC1` (stereo not shown) [cetirizine, [2-{4-[(4-chlorophenyl)-phenylmethyl]-1-piperazinyl}ethoxy]acetic acid], the “Symptoms and nasal peak flow after an allergen challenge” value in series [1] is “reduce symptoms and increase nasal peak flow”. For the same compound, the “Protective effect in exercise-induced asthma” value in series [2] is listed as “good protective effect”. Moreover, for the setting “nasal spray 0.625, 1.25, 2.5 mg/mL three times a day for two weeks”, the “Effect on symptoms in perennial allergic rhinitis” value was “Some effect”. Besides, for the setting “nasal spray versus placebo”, the “Incidence of side effects (nasal events)” value is “no difference in incidence between the placebo and the cetirizine-treated groups”.
